What was measured:
Conditions in all cases: Compound concentration 1.0 uM
[1] = molecular target: T1, Ephrin type-B receptor 1 (Homo sapiens) (UniProt P54762)
T1 sequence (whole entry): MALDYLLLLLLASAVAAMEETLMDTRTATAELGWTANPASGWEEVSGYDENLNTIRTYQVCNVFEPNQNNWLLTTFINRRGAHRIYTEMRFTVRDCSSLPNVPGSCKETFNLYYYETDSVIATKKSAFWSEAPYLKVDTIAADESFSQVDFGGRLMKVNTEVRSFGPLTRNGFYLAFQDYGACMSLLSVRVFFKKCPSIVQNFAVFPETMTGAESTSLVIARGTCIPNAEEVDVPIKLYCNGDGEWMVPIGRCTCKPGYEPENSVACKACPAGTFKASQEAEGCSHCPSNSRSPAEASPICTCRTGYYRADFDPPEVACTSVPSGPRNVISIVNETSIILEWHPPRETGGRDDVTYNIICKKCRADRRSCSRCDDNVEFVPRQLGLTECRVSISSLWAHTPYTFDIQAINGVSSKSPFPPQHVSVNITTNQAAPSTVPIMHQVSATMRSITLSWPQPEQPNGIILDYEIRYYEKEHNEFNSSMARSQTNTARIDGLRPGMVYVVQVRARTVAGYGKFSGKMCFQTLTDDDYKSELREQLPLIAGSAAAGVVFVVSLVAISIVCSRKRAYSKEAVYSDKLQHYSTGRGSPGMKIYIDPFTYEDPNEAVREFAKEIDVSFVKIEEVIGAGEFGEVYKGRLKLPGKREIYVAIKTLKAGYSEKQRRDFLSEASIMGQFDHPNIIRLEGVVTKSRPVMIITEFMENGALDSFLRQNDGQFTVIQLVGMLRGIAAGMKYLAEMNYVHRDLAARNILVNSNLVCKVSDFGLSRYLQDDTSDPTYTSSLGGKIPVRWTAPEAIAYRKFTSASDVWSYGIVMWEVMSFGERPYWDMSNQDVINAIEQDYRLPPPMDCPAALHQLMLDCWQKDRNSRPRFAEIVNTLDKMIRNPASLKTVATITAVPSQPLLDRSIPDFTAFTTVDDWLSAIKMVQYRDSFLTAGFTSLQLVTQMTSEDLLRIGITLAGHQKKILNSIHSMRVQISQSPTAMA

[2] = molecular target: T2, Homeodomain-interacting protein kinase 4 (Homo sapiens) (UniProt Q8NE63)
T2 sequence (whole entry): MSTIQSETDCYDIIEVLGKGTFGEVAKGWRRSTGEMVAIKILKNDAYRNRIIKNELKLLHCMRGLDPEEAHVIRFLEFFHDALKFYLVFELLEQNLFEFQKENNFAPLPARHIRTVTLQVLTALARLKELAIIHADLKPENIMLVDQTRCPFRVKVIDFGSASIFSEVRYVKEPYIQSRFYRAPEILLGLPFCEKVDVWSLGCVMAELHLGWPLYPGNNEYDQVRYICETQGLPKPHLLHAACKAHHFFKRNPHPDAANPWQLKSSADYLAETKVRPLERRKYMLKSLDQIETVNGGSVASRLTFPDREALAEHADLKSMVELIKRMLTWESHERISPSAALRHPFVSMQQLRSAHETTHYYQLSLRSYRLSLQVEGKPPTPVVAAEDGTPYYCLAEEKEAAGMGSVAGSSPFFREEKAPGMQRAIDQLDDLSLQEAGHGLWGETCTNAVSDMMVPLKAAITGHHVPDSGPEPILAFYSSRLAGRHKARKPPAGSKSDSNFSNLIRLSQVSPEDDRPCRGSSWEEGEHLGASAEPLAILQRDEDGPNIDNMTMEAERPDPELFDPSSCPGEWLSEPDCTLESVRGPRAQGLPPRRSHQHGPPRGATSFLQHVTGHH

[3] = molecular target: Cyclin-dependent kinase 1/cyclin B (Homo sapiens) (UniProt P06493+P14635+Q8WWL7+O95067)
[4] = molecular target: Serine/threonine-protein kinase PAK 6 (Homo sapiens) (UniProt Q9NQU5)
Serine/threonine-protein kinase PAK 6 (Homo sapiens), sequence (Q9NQU5 whole entry, looked up): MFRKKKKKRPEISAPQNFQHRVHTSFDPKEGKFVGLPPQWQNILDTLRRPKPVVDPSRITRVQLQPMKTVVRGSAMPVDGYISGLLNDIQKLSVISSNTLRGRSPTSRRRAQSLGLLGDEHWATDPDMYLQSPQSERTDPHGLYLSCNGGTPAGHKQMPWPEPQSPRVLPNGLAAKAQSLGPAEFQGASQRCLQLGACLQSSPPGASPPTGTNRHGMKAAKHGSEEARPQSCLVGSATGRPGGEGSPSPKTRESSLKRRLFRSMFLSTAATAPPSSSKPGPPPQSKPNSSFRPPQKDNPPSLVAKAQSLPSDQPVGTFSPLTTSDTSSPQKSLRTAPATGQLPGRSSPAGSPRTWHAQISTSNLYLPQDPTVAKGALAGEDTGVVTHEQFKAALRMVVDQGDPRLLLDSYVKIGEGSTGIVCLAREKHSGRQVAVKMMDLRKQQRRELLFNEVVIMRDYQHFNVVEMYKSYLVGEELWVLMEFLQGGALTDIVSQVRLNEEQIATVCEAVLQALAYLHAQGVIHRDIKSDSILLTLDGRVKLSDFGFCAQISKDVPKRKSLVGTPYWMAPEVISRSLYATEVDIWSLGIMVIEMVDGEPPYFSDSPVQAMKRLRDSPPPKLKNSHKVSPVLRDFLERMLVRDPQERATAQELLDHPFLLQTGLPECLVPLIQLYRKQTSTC

[5] = molecular target: Serine/threonine-protein kinase A-Raf (Homo sapiens) (UniProt P10398)
Serine/threonine-protein kinase A-Raf (Homo sapiens), sequence (P10398 whole entry): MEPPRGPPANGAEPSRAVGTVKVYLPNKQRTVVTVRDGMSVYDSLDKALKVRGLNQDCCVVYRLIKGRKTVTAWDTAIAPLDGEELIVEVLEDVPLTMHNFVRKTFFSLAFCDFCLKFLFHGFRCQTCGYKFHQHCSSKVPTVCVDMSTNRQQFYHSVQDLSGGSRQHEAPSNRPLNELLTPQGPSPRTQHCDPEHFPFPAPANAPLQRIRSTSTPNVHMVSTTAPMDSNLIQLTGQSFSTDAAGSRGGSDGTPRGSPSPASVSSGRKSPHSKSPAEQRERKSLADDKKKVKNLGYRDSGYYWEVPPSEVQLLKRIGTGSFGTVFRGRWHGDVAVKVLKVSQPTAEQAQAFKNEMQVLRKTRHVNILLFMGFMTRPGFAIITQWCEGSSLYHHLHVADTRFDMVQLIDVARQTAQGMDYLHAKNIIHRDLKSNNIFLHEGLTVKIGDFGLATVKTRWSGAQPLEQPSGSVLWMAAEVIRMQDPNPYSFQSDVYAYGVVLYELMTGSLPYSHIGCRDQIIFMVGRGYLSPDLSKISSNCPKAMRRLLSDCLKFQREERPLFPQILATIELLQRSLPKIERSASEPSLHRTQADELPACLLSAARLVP

[6] = molecular target: BDNF/NT-3 growth factors receptor (Homo sapiens) (UniProt Q16620)
BDNF/NT-3 growth factors receptor (Homo sapiens), sequence (Q16620 32-822 limits assumed): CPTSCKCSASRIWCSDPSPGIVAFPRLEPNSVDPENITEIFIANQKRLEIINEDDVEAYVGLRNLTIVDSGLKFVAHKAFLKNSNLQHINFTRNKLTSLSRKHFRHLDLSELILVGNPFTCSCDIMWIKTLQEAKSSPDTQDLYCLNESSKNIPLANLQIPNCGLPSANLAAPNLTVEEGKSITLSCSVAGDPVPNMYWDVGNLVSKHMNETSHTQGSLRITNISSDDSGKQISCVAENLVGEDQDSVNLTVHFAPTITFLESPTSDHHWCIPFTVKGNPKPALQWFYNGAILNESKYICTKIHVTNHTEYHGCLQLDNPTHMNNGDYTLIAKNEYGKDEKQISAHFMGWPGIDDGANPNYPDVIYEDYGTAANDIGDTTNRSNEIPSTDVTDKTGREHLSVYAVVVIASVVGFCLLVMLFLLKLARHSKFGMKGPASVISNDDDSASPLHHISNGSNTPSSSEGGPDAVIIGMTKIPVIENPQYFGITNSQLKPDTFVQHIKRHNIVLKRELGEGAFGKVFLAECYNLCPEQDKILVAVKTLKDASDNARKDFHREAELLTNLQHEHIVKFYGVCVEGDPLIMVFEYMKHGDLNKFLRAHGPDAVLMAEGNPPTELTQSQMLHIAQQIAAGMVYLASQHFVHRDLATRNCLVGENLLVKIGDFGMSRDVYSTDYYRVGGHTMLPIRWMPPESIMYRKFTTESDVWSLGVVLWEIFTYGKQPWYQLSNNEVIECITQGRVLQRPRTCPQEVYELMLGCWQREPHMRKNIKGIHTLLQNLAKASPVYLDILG

[7] = molecular target: Serine/threonine-protein kinase pim-1 (Homo sapiens) (UniProt P11309)
Serine/threonine-protein kinase pim-1 (Homo sapiens), sequence (P11309 whole entry, looked up): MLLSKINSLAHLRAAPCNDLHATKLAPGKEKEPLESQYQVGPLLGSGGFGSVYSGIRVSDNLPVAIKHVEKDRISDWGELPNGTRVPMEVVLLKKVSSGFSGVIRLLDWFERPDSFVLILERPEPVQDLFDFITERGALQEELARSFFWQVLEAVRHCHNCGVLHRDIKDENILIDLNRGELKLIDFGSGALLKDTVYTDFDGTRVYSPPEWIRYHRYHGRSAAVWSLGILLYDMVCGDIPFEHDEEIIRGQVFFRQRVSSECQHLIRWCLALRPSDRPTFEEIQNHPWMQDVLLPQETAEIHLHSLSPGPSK

[8] = molecular target: T3, Serine/threonine-protein kinase Sgk3 (Homo sapiens) (UniProt Q96BR1)
T3 sequence (whole entry): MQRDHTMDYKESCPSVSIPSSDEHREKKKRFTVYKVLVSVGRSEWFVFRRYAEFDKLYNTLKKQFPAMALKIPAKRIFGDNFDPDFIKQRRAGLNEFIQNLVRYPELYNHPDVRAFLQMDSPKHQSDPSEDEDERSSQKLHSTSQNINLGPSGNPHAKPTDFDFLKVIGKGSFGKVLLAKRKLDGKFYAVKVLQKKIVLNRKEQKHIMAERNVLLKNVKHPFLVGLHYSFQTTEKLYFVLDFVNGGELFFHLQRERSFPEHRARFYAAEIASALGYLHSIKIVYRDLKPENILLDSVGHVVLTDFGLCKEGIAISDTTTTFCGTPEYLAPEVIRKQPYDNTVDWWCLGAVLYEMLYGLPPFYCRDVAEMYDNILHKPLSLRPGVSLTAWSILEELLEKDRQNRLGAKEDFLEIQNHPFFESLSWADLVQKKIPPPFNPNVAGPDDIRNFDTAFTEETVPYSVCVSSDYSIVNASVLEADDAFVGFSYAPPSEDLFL

Measured: % residual kinase activity

CN1CCN(c2cnc3c(C4CCN(C(=O)c5ccc(OC(F)(F)F)cc5N)CC4)ncnc3c2)CC1 [BAY-885]
inactive: [1] 105% | [2] 94% | [3] 101% | [4] 103% | [5] 96% | [6] 98% | [7] 111% | [8] 104%

— ChEMBL document CHEMBL4507268 (2021)
